Laboratory results: US20030023104A1, “Therapeutic compound - fatty acid conjugates” (COMMONWEALTH SCIENTIFIC AND INDUSTRIAL RESEARCH ORGANISATION, priority 1995, published 2003)
Values joined by “and” are separate entries in the source; they are usually repeats but may differ in a detail not shown here. Equal values may be shown once.

Tests used:
[1] = test system: UVB induced oedema; test: UVB erythema assay (net skin fold thickness); type: in vivo, Skh-1 hairless albino female mice; details: for Mean Net Skin Fold Thickness: 0.5 mg/mouse topical, 2MED UVB
[2] = test system: UVB induced immunosuppression; test: Contact Hypersensitivity Assay (oxazolone, net ear swelling); type: in vivo, mice; details: 1% (1 mg/mouse) painted within 10 minutes post UVB exposure, total 3 MED UVB
Text: The assay used the method described in “Current Protocols in Immunology” (Vol 1, Section 4.2 Eds Coligan et al. (1991) NIH). The sensitiser was Oxazalone. Briefly this method was as follows:
UVB Radiation. Mice were irradiated with a single FL40SE UVB fluorescent tube (Oliphant) in a reflective batten, providing […] UVB radiation measured at target distance using an International Light IL1700 radiometer with a UVB detector sensitive between 250-315 nm. The mice received 0.1179 J/cm^2 UVB radiation, constituting 1 minimal erythemal dose (MED) as previously ascertained, on each of 3 consecutive days, being exposed unrestrained with the wire cage tops removed.
Induction of Systemic Contact Hypersensitivity. Test mice were exposed on the dorsum to 1 MED UVB radiation (or no UVB radiation) at the same hour on days 1, 2 and 3. On days 8 and 9, the mice (irradiated and non-irradiated) were sensitized by topical application to the abdominal skin of 0.1 ml of 3% (w/v) oxazolone (Sigma Chemical Co., St Louis, Mo.) freshly prepared in ethanol. On day 15, the pre-challenge ear thickness was measured using the spring micrometer, and the mice were then challenged by the application of 5 ul freshly prepared 3% oxazolone/ethanol solution to both surfaces of each pinna. Ear thickness was again measured repeatedly between 16-24 hours, and the maximum ear thickness was recorded. The net ear swelling was calculated as the difference between the average pre-challenge and the average post-challenge ear thickness for each treatment group. Statistical significance of the differences in net ear swelling between treatment groups was assessed with Student's t test.
The mice were painted with vehicle, 0.5 mg/mouse HC, 0.5 mg/mouse HC-Suc-GTP2. 1 mg/mouse 17-b HC-Suc-GTP3 or 17-b HC within 10 minutes post UVB exposure. A total of 3 MED of unshielded UVB was used. (Table 3)

[3] = test system: B16 melanoma cells; test: Tumour Cytotoxicity Model (B16 melanoma in C57 mice); type: in vivo, C57 black mice; parameters: Mean (standard error) of B16 tumour volume adjusted for the variation in initial volume: scale not given here; details: for Mean (standard error) of B16 tumour volume adjusted for the variation in initial volume: statistically modified tumour volume; for B16 Tumour Volume: individual mice
Description: Groups of C57 black mice were given an initiation dose of 2×10^5 B16 melanoma cells as an intradermal injection. The cells were suspended in MEM without serum. The abdomen was clipped and 100 μl of cells + MEM was injected. […] The tumours were measured with a micrometer and photographed just prior to the injection of drug (day 8-10).
The cytotoxic drugs and their fatty acid conjugates were dissolved or suspended in 4:1 soy bean oil:ethyl oleate. A 10 mg/ml or a 20 mg/ml solution of each parent drug or the fatty acid conjugate made to the same molar concentration as the parent drug was then injected into the same region as the tumour at a dose of 0.5 mg or 1 mg. The tumours were then photographed, measured and re-injected every two to three days.

[4] = test system: JURKAT cells (acute T cell human leukemia); details: JURKAT; for IC50: drugs coated onto plates (Table 9); for activity (cytotoxicity) when delivered to cultures in ethanol: ethanol delivery
Description: The cytotoxicity of chlorambucil and chlorambucil fatty acid conjugates (CGTP1. P2 and P3) were tested in vitro with JURKAT cells (acute T cell human leukemia). Cells were incubated with drug and viability was determined by a colourmetric proliferation test. Cytotoxicity towards other cells lines was also tested (PC3 human prostate cancer cells, B16 mouse melanoma cells and human peripheral blood mononuclear cells).
JURKAT cells were seeded into 96-well plates at a density of 1.6×10^4 cells/200 μl complete RPMI ± drug and cultured for 64 h. A 1:3 split of confluent PC3 cells in a 75 cm^2 flask were seeded into a 96-well plate and cultured for 48 h in complete RPMI. Media was removed and complete RPMI ± drug was added to wells. Cells were further cultured for 72 h.
i) Ethanol. Drugs were dissolved in ethanol and added to culture media. The final concentration of ethanol in media was no greater than 1% (v/v). This delivery was used for experiments with JURKAT, PBMC, PC3 and B16 cell types.
ii) Coating of plates. Drugs were dissolved in ethanol and aliquots (up to 40 μl) were added to 90% (v/v) isopropanol. Solution (50 μl) was then added to wells of a 96-well plate and the solvent evaporated by heating at 37° C. Media ± cells was then added. This delivery was used for some experiments with JURKAT cells.
Viability was determined using the MTS assay (CellTiter 96TM AQueous Non-Radioactive Cell Proliferation Assay) from Promega. Reagent (40 μl) was added to each well and absorbance values at 490 nm were determined 1 to 4 h later. The effect of drug on cell viability was compared to cultures set up containing no drug (100% viability). Wells containing no cells were used to control for background absorbance (0% viability). Each concentration was tested in at least 3 wells. Concentrations necessary to cause a 50% inhibition of cellular growth of control cells (IC50) were calculated by linear regression.

In the case of CCCCCCCCCCCCCCCC(=O)OCC(COC(=O)CCCCCCCCCCCCCCC)(COC(=O)CCCCCCCCCCCCCCC)NC(=O)CNC(=O)CCC(=O)OCC(=O)[C@@]1(O)CC[C@H]2[C@@H]3CCC4=CC(=O)CC[C@]4(C)[C@H]3[C@@H](O)C[C@@]21C [17-b HC-Suc-GTP3, 17-b Hydrocortisone-21-Suc-Gly-Tris-Tripalmitate], the “Mean Net Skin Fold Thickness” value ([1]; applied Day 0 after UV exposure) is reported as 42.7 ± 13.7 10^−2 mm, the “Mean Net Skin Fold Thickness” value ([1]; applied Day −3 (3 days prior to UV exposure)) is reported as 90.7 ± 14.8 10^−2 mm and the “activity equivalent to % of the hydrocortisone activity in protecting against UVB induced oedema” value ([1]; 0.5 mg/mouse, applied at Day 0, post UVB exposure) is reported as “approximately 50%”. For the same molecule, the “Net Ear Swelling” value [2] was 32.8 10^−2 mm.
With CCCC(=O)O[C@]1(C(=O)CO)CC[C@H]2[C@@H]3CCC4=CC(=O)CC[C@]4(C)[C@H]3[C@@H](O)C[C@@]21C [17b-Hydrocortisone, 17-Butyrate-Hydrocortisone, reference compound] the “Net Ear Swelling” value [2] was 38.6 10^−2 mm.
CCCCCCCCCCCCCCCC(=O)OCC(CO)(COC(=O)CCCCCCCCCCCCCCC)NC(=O)CNC(=O)CCCc1ccc(N(CCCl)CCCl)cc1 [CGTP2] was tested, and the “difference in tumour volume from the Vehicle group (95% level)” value ([3]; 0.5 mg and 1.0 mg groups) was “significant difference”, the “Mean (standard error) of B16 tumour volume adjusted for the variation in initial volume” value (from here on “Mean (standard error)”) ([3]; 13/11/95, 0.5 mg) was 2.39 (0.523) and the “Mean (standard error)” value ([3]; 13/11/95, 1.0 mg) was 2.58 (0.523). For the same molecule, the “Mean (standard error)” value ([3]; 15/11/95, 0.5 mg) was 4.07 (0.881), the “Mean (standard error)” value ([3]; 15/11/95, 1.0 mg) was 3.89 (0.819) and the “Mean (standard error)” value ([3]; 16/11/95, 0.5 mg) was 4.84 (1.06). The “Mean (standard error)” value ([3]; 16/11/95, 1.0 mg) was 4.23 (0.98), the “Mean (standard error)” value ([3]; 17/11/95, 0.5 mg) was 4.90 (1.28) and the “Mean (standard error)” value ([3]; 17/11/95, 1.0 mg) was 4.84 (1.19). For the same molecule, the “B16 Tumour Volume” value ([3]; Day 1, drug dose 0.5 mg injected at tumour region) was 0.5 mm^2 and 1.0 mm^2 and 2.7 mm^2, the “B16 Tumour Volume” value ([3]; Day 1, drug dose 0.5 mg injected at tumour region, listed as CCTP2) was 14.1 mm^2 and the “B16 Tumour Volume” value ([3]; Day 1, drug dose 1.0 mg) was 8.2 mm^2 and 38.3 mm^2. For the same molecule, the “B16 Tumour Volume” value ([3]; Day 1, drug dose 1.0 mg, listed as CCTP2) was 5 mm^2, the “B16 Tumour Volume” value ([3]; Day 3, drug dose 0.5 mg) was 0.3 mm^2 and 1 mm^2 and 0 mm^2 and the “B16 Tumour Volume” value ([3]; Day 3, drug dose 0.5 mg, listed as CCTP2) was 27.4 mm^2. The “B16 Tumour Volume” value ([3]; Day 3, drug dose 1.0 mg) was 32.7 mm^2 and 73.5 mm^2, the “B16 Tumour Volume” value ([3]; Day 3, drug dose 1.0 mg, listed as CCTP2) was 0 mm^2 and 7.7 mm^2 and the “B16 Tumour Volume” value ([3]; Day 5, drug dose 0.5 mg) was 11.8 mm^2 and 19.1 mm^2 and 0.0 mm^2. The “B16 Tumour Volume” value ([3]; Day 5, drug dose 0.5 mg, listed as CCTP2) was 82.8 mm^2, the “B16 Tumour Volume” value ([3]; Day 5, drug dose 1.0 mg) was 111.9 mm^2 and 174.1 mm^2 and the “B16 Tumour Volume” value ([3]; Day 5, drug dose 1.0 mg, listed as CCTP2) was 0 mm^2 and 38.3 mm^2. The “B16 Tumour Volume” value ([3]; Day 6, drug dose 0.5 mg) was 19.8 mm^2 and 13.6 mm^2 and 0 mm^2, the “B16 Tumour Volume” value ([3]; Day 6, drug dose 0.5 mg, listed as CCTP2) was 167.4 mm^2 and the “B16 Tumour Volume” value ([3]; Day 6, drug dose 1.0 mg) was 108.4 mm^2 and 240.3 mm^2. For the same molecule, the “B16 Tumour Volume” value ([3]; Day 6, drug dose 1.0 mg, listed as CCTP2) was 0 mm^2 and 61.6 mm^2, the “B16 Tumour Volume” value ([3]; Day 7, drug dose 0.5 mg) was 21.8 mm^2 and 35.1 mm^2 and 0 mm^2 and the “B16 Tumour Volume” value ([3]; Day 7, drug dose 0.5 mg, listed as CCTP2) was 152.8 mm^2. The “B16 Tumour Volume” value ([3]; Day 7, drug dose 1.0 mg) was 254.1 mm^2 and 215.0 mm^2, the “B16 Tumour Volume” value ([3]; Day 7, drug dose 1.0 mg, listed as CCTP2) was 0 mm^2 and 92.6 mm^2 and the IC50 [4] was 17.7 µM. For the same molecule, the “activity (cytotoxicity) when delivered to cultures in ethanol” value [4] was “not observed”.
CCCCCCCCCCCCCCCC(=O)OCC(COC(=O)CCCCCCCCCCCCCCC)(COC(=O)CCCCCCCCCCCCCCC)NC(=O)CNC(=O)CCCc1ccc(N(CCCl)CCCl)cc1 [CGTP3, Chlorambucil-Gly-Tris-Tripalmitate] was tested, and the IC50 [4] was 30 µM and the “activity (cytotoxicity) when delivered to cultures in ethanol” value [4] was “not observed”.
